{"source": "patent US10202368B2", "about": "“CXCR7 receptor modulators” (IDORSIA PHARMACEUTICALS LTD, priority 2014, dated 2019)", "data": [{"molecular_target": "CXCR7 (Homo sapiens (Human), UniProt P25106)", "sequence (P25106 whole entry)": "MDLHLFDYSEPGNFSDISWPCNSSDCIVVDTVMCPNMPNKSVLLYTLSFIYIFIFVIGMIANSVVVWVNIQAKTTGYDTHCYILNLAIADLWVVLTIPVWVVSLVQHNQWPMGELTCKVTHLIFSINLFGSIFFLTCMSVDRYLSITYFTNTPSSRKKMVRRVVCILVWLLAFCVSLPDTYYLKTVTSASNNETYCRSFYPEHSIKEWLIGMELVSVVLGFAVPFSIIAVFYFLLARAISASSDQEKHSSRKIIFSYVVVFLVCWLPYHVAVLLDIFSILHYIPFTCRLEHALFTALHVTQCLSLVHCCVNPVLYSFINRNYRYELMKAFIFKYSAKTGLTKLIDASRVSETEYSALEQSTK", "sequence (P32121 whole entry partner)": "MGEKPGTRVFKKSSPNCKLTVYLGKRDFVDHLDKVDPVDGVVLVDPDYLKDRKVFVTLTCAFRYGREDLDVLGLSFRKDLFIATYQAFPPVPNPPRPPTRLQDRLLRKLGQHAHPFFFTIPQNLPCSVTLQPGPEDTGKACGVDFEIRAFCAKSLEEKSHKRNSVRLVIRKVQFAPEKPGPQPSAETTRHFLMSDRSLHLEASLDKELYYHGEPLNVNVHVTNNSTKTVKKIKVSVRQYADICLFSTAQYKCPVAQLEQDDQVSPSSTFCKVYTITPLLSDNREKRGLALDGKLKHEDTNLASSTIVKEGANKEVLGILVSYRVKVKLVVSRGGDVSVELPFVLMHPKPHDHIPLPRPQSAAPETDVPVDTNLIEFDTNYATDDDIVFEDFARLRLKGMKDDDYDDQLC", "experiment": "PathHunter CHO-K1 CXCR7 β-arrestin assay (agonistic activity)", "type": "cell-based", "details": "β-arrestin recruitment in PathHunter CHO-K1 CXCR7 β-arrestin cells, 90 minutes at 37° C., geometric mean values", "description": "The CXCI12 receptor and CXCR7 agonistic activities of the compounds of formula (I) are determined in accordance with the following experimental method.\nThe assay is using the PathHunter™ CHO-K1 CXCR7 β-arrestin cell line from DiscoverX. The system is based on the Enzyme Fragment Complementation Technology. Two complementing fragments of the β-galactosidase enzyme are expressed within stably transfected cells. The larger portion of β-gal, termed EA for Enzyme Acceptor, is fused to the C-terminus of b-arrestin 2. The smaller fragment, termed ProLink™ tag, is fused to CXCR7 at the C-terminus. Upon activation, b-arrestin is recruited which forces the interaction of ProLink and EA, allowing complementation of the two fragments of b-gal and the formation of a functional enzyme which is capable of hydrolysing the substrate and generating a chemiluminescent signal.\nCHO-K1 CXCR7 β-arrestin cells are detached from culture dishes with a cell dissociation buffer (Invitrogen, #13151-014) and collected in growing medium (F12 HAMS 90% (v/v)/FCS 10% (v/v), Penicillin/streptomycin 1% (v/v)). 5000 cells per well (in 20 μl) are seeded in a 384 well plate (white-walled, clear bottom; BD Falcon #353274). The plate is incubated at 37° C./5% CO2 for 24 hours. Medium is then replaced by 20 μl OPTIMEM (Invitrogen #31985) for 3 to 4 hours. Test compounds are dissolved at 10 mM in DMSO and serially diluted in DMSO to 200× of the final concentration for dose response curves. Compounds are then diluted 1:33.3 in HBSS1X. 5 μl/well of HBSS1X/20 mM HEPES/0.2% BSA are added to the assay plate followed by addition of 5 μl/well of diluted compounds. CXCL12 (Peprotech #300-28A) may be used as a reference agonist. The plate is incubated for 90 minutes at 37° C. 12 μl of detection reagent (Path Hunter Detection Kit, DiscoveRx, #93-0001) is transferred to the assay plate and to the plate is incubated for 1 hour at room temperature. Luminescent signal is read in a microplate reader (FLUOstar Optima, bmg). The calculated EC50 values may fluctuate depending on the daily cellular assay performance. Fluctuations of this kind are known to those skilled in the art. Average EC50 values from several measurements are given as geometric mean values.", "units": {"EC50": "nM"}, "values": [{"smiles": "CN(C)CCN(Cc1ccccc1C(F)(F)F)C(=O)CNc1cccc2c1CCN(C(=O)C(F)(F)F)CC2", "note": "[Example 26, N-(2-Dimethylamino-ethyl)-2-[3-(2,2,2-trifluoro-acetyl)-2,3,4,5-tetrahydro-1H-benzo[d]azepin-6-ylamino]-N-(2-trifluoromethyl-benzyl)-acetamide]", "EC50": 4}, {"smiles": "CN(C)CCN(Cc1ccccc1C(F)(F)F)C(=O)CNc1cccc2c1CCN(CC1CC1)CC2", "note": "[Example 27, 2-(3-Cyclopropylmethyl-2,3,4,5-tetrahydro-1H-benzo[d]azepin-6-ylamino)-N-(2-dimethylamino-ethyl)-N-(2-trifluoromethyl-benzyl)-acetamide]", "EC50": 2}, {"smiles": "CN(C)CCN(Cc1ccccc1C(F)(F)F)C(=O)CNc1cccc2c1CCCN(CC1CC1)C2", "note": "[Example 28, 2-(2-Cyclopropylmethyl-2,3,4,5-tetrahydro-1H-benzo[c]azepin-6-ylamino)-N-(2-dimethylamino-ethyl)-N-(2-trifluoromethyl-benzyl)-acetamide]", "EC50": 3}, {"smiles": "CC(C)(C)NCCN(Cc1ccccc1C(F)(F)F)C(=O)CNc1cccc2c1C(=O)N(CC1CC1)CCO2", "note": "[Example 29, N-(2-tert-Butylamino-ethyl)-2-(4-cyclopropylmethyl-5-oxo-2,3,4,5-tetrahydro-benzo[f][1,4]oxazepin-6-ylamino)-N-(2-trifluoromethyl-benzyl)-acetamide]", "EC50": 3}, {"smiles": "CN(C)CCN(Cc1cccc(Cl)c1Cl)C(=O)CNc1cccc2c1C(=O)N(CC1CC1)CCO2", "note": "[Example 30, 2-(4-Cyclopropylmethyl-5-oxo-2,3,4,5-tetrahydro-benzo[f][1,4]oxazepin-6-ylamino)-N-(2,3-dichloro-benzyl)-N-(2-dimethylamino-ethyl)-acetamide]", "EC50": 7.8}, {"smiles": "CN(C)CCN(Cc1c(Cl)cccc1Cl)C(=O)CNc1cccc2c1C(=O)N(CC1CC1)CCO2", "note": "[Example 31, 2-(4-Cyclopropylmethyl-5-oxo-2,3,4,5-tetrahydro-benzo[f][1,4]oxazepin-6-ylamino)-N-(2,6-dichloro-benzyl)-N-(2-dimethylamino-ethyl)-acetamide]", "EC50": 27}, {"smiles": "CN(C)CCN(Cc1ccccc1Cl)C(=O)CNc1cccc2c1C(=O)N(CC1CC1)CCO2", "note": "[Example 32, N-(2-Chloro-benzyl)-2-(4-cyclopropylmethyl-5-oxo-2,3,4,5-tetrahydro-benzo[f][1,4]oxazepin-6-ylamino)-N-(2-dimethylamino-ethyl)-acetamide]", "EC50": 15}, {"smiles": "Cc1cccc(CN(CCN(C)C)C(=O)CNc2cccc3c2C(=O)N(CC2CC2)CCO3)n1", "note": "[Example 33, 2-(4-Cyclopropylmethyl-5-oxo-2,3,4,5-tetrahydro-benzo[f][1,4]oxazepin-6-ylamino)-N-(2-dimethylamino-ethyl)-N-(6-methyl-pyridin-2-ylmethyl)-acetamide]", "EC50": 24}, {"smiles": "CC(C)NCCN(Cc1ccccc1C(F)(F)F)C(=O)CNc1cccc2c1C(=O)N(CC1CC1)CCO2", "note": "[Example 34, 2-(4-Cyclopropylmethyl-5-oxo-2,3,4,5-tetrahydro-benzo[f][1,4]oxazepin-6-ylamino)-N-(2-isopropylamino-ethyl)-N-(2-trifluoromethyl-benzyl)-acetamide]", "EC50": 5}, {"smiles": "CC(C)N(CCN(Cc1ccccc1C(F)(F)F)C(=O)CNc1cccc2c1C(=O)N(CC1CC1)CCO2)C(=O)OC(C)(C)C", "note": "[Example 35, {2-[[2-(4-Cyclopropylmethyl-5-oxo-2,3,4,5-tetrahydro-benzo[f][1,4]oxazepin-6-ylamino)-acetyl]-(2-trifluoromethyl-benzyl)-amino]-ethyl}-isopropyl-carbamic acid tert-butyl ester]", "EC50": 420}, {"smiles": "CNCCN(Cc1ccccc1C(F)(F)F)C(=O)CNc1cccc2c1C(=O)N(CC1CC1)CCO2", "note": "[Example 36, 2-(4-Cyclopropylmethyl-5-oxo-2,3,4,5-tetrahydro-benzo[f][1,4]oxazepin-6-ylamino)-N-(2-methylamino-ethyl)-N-(2-trifluoromethyl-benzyl)-acetamide]", "EC50": 12}, {"smiles": "CN(CCN(Cc1ccccc1C(F)(F)F)C(=O)CNc1cccc2c1C(=O)N(CC1CC1)CCO2)C(=O)OC(C)(C)C", "note": "[Example 37, {2-[[2-(4-Cyclopropylmethyl-5-oxo-2,3,4,5-tetrahydro-benzo[f][1,4]oxazepin-6-ylamino)-acetyl]-(2-trifluoromethyl-benzyl)-amino]-ethyl}-methyl-carbamic acid tert-butyl ester]", "EC50": 410}, {"smiles": "CN(C)CCN(Cc1ccccc1C(F)(F)F)C(=O)CNc1cccc2c1C(=O)N(CC1CC1)CCO2", "note": "[Example 38, 2-(4-Cyclopropylmethyl-5-oxo-2,3,4,5-tetrahydro-benzo[f][1,4]oxazepin-6-ylamino)-N-(2-dimethylamino-ethyl)-N-(2-trifluoromethyl-benzyl)-acetamide]", "EC50": 4}, {"smiles": "CCN1CCOc2c(NCC(=O)N(CCN(C)C)Cc3ncccc3C)cccc2C1=O", "note": "[Example 39, N-(2-Dimethylamino-ethyl)-2-(4-ethyl-5-oxo-2,3,4,5-tetrahydro-benzo[f][1,4]oxazepin-9-ylamino)-N-(3-methyl-pyridin-2-ylmethyl)-acetamide]", "EC50": 400}, {"smiles": "CCN1CCOc2c(NCC(=O)N(CCNC(C)(C)C)Cc3ccccc3C(F)(F)F)cccc2C1=O", "note": "[Example 40, N-(2-tert-Butylamino-ethyl)-2-(4-ethyl-5-oxo-2,3,4,5-tetrahydro-benzo[f][1,4]oxazepin-9-ylamino)-N-(2-trifluoromethyl-benzyl)-acetamide]", "EC50": 7}, {"smiles": "CCN1CCOc2c(NCC(=O)N(CCN(C)C)Cc3ccccc3C(F)(F)F)cccc2C1=O", "note": "[Example 41, N-(2-Dimethylamino-ethyl)-2-(4-ethyl-5-oxo-2,3,4,5-tetrahydro-benzo[f][1,4]oxazepin-9-ylamino)-N-(2-trifluoromethyl-benzyl)-acetamide]", "EC50": 22}, {"smiles": "CN(C)CCN(Cc1ccccc1C(F)(F)F)C(=O)CNc1cccc2c1N(C)CCN(CC1CC1)C2=O", "note": "[Example 42, 2-(4-Cyclopropylmethyl-1-methyl-5-oxo-2,3,4,5-tetrahydro-1H-benzo[e][1,4]diazepin-9-ylamino)-N-(2-dimethylamino-ethyl)-N-(2-trifluoromethyl-benzyl)-acetamide]", "EC50": 7}, {"smiles": "CN1CCN(CC2CC2)C(=O)c2cccc(NCC(=O)N(CCNC(C)(C)C)Cc3ccccc3C(F)(F)F)c21", "note": "[Example 43, N-(2-tert-Butylamino-ethyl)-2-(4-cyclopropylmethyl-1-methyl-5-oxo-2,3,4,5-tetrahydro-1H-benzo[e][1,4]diazepin-9-ylamino)-N-(2-trifluoromethyl-benzyl)-acetamide]", "EC50": 4}, {"smiles": "Cc1cccnc1CN(CCN(C)C)C(=O)CNc1cccc2c1N(C)CCN(CC1CC1)C2=O", "note": "[Example 44, 2-(4-Cyclopropylmethyl-1-methyl-5-oxo-2,3,4,5-tetrahydro-1H-benzo[e][1,4]diazepin-9-ylamino)-N-(2-dimethylamino-ethyl)-N-(3-methyl-pyridin-2-ylmethyl)-acetamide]", "EC50": 130}, {"smiles": "CN(C)CCN(Cc1ncccc1Cl)C(=O)CNc1cccc2c1N(C)CCN(CC1CC1)C2=O", "note": "[Example 45, N-(3-Chloro-pyridin-2-ylmethyl)-2-(4-cyclopropylmethyl-1-methyl-5-oxo-2,3,4,5-tetrahydro-1H-benzo[e][1,4]diazepin-9-ylamino)-N-(2-dimethylamino-ethyl)-acetamide]", "EC50": 50}, {"smiles": "CC(C)NCCN(Cc1ccccc1C(F)(F)F)C(=O)CNc1cccc2c1N(C)CCN(CC1CC1)C2=O", "note": "[Example 46, 2-(4-Cyclopropylmethyl-1-methyl-5-oxo-2,3,4,5-tetrahydro-1H-benzo[e][1,4]diazepin-9-ylamino)-N-(2-isopropylamino-ethyl)-N-(2-trifluoromethyl-benzyl)-acetamide]", "EC50": 5}, {"smiles": "CCN1CCN(CC)c2c(NCC(=O)N(CCN3CCOCC3)Cc3ncccc3C(F)(F)F)cccc2C1=O", "note": "[Example 47, 2-(1,4-Diethyl-5-oxo-2,3,4,5-tetrahydro-1H-benzo[e][1,4]diazepin-9-ylamino)-N-(2-morpholin-4-yl-ethyl)-N-(3-trifluoromethyl-pyridin-2-ylmethyl)-acetamide]", "EC50": 430}, {"smiles": "CCN1CCN(CC)c2c(NCC(=O)N(CCN3CCCC3)Cc3ncccc3C(F)(F)F)cccc2C1=O", "note": "[Example 48, 2-(1,4-Diethyl-5-oxo-2,3,4,5-tetrahydro-1H-benzo[e][1,4]diazepin-9-ylamino)-N-(2-pyrrolidin-1-yl-ethyl)-N-(3-trifluoromethyl-pyridin-2-ylmethyl)-acetamide]", "EC50": 47}, {"smiles": "CN(C)CCN(Cc1ccccc1C(F)(F)F)C(=O)CNc1cccc2c1N(C)CCN(CC1CC1)C2", "note": "[Example 49, 2-(4-Cyclopropylmethyl-1-methyl-2,3,4,5-tetrahydro-1H-benzo[e][1,4]diazepin-9-ylamino)-N-(2-dimethylamino-ethyl)-N-(2-trifluoromethyl-benzyl)-acetamide]", "EC50": 2}]}]}
